Literature values, collected in patent publication US10925856B2, “Methods and compositions involving bucindolol for the treatment of atrial fibrillation” (priority 2018, dated 2021).
Like-named read-outs stand apart in the source and are kept apart here.

System: patients with HF and/or AF
Conditions: persistent AF recently converted to SR, cited from earlier work

| SMILES | AF recurrence rate (Plewan et al) [%] | AF recurrence rate (Katritsis et al) [%] |
| --- | --- | --- |
| CC(C)NCC(O)c1ccc(NS(C)(=O)=O)cc1 (stereo not shown) [sotalol] | 41 | – |
| CC(C)NCC(O)COc1ccc(COCCOC(C)C)cc1 (stereo not shown) [bisoprolol] | 42 | 46 |
| COc1ccccc1OCCNCC(O)COc1cccc2[nH]c3ccccc3c12 (stereo not shown) [carvedilol] | – | 32 |
